Among the test systems are MCF7 breast; KM12 colon; A498 renal; SN12C renal; IGROV1 ovarian; OVCAR-5 ovarian; MOLT-4 leukemia; NCI-H23 lung; RPMI-8226 leukemia; SW-620 colon; NCI-H226 lung; PC-3 prostate; BT-549 breast.
What all share (assay): inhibition of tumour cell growth, NCI panel, 48 h

Where “and” joins values, the source holds several entries; their conditions need not be identical. Equal entries are not always repeated.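 A five-concentration, 48-hour dose response in 96-well plates underlies each endpoint, interpolated linearly between surrounding concentrations. GI50: concentration for 50% inhibition of growth. TGI denotes the concentration required for complete inhibition of growth.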

For the molecule `CN1C(=O)c2ccccc2NC(=O)c2cnn(C)c21`, the TGI with MCF7 breast, with KM12 colon, in the assay on A498 renal, with SN12C renal, in the assay on IGROV1 ovarian and in the assay on OVCAR-5 ovarian was more than 100 µM throughout. Also, the TGI in the assay with MOLT-4 leukemia, with NCI-H23 lung, in the assay with RPMI-8226 leukemia, in the assay with SW-620 colon and in the assay on NCI-H226 lung was more than 100 µM each time.
Consider `COCO[C@@H]1C[C@H]2C(O)Nc3ccccc3C(=O)N2C1` (some centres undefined), for which the TGI in the assay with PC-3 prostate, with MCF7 breast, in the assay on KM12 colon, in the assay on A498 renal, in the assay with IGROV1 ovarian and in the assay with OVCAR-5 ovarian was more than 100 µM each time. The TGI with MOLT-4 leukemia, in the assay with NCI-H23 lung, with RPMI-8226 leukemia, in the assay with SW-620 colon and in the assay with NCI-H226 lung was more than 100 µM throughout.
Consider `CN(C)c1ccc(/C=C2/SC(=S)NC2=O)cc1`, for which the TGI in the assay with BT-549 breast, with PC-3 prostate, in the assay on MCF7 breast, in the assay with KM12 colon, in the assay on A498 renal and in the assay on SN12C renal was more than 100 µM in each case. Further, the TGI in the assay with IGROV1 ovarian was more than 100 µM; with OVCAR-5 ovarian, 72.6 µM; with MOLT-4 leukemia, more than 100 µM; in the assay with NCI-H23 lung it was more than 100 µM; in the assay with RPMI-8226 leukemia, more than 100 µM; with SW-620 colon, more than 100 µM. Moreover, in the assay on NCI-H226 lung, the TGI is more than 100 µM.
`N#C[S-].[Nd+3].c1cnc2c(c1)ccc1cccnc12.c1cnc2c(c1)ccc1cccnc12.c1cnc2c(c1)ccc1cccnc12`: the TGI amounted to 22.6 µM in the assay with KM12 colon; 13.6 µM with A498 renal; 14.2 µM with SN12C renal; 25.3 µM in the assay with IGROV1 ovarian; 15.3 µM in the assay on OVCAR-5 ovarian; 6.64 µM with MOLT-4 leukemia. For the same molecule, the TGI with NCI-H23 lung is 23.3 µM; with RPMI-8226 leukemia, more than 100 µM; with SW-620 colon, 24.7 µM; in the assay on NCI-H226 lung, 5.91 µM.
Take `C=CCc1cc(-c2cc(CC=C)c(O)c(CN(CCCl)CCCl)c2)cc(CN(CCCl)CCCl)c1O`: the TGI with BT-549 breast was found to be 66.9 µM; in the assay on PC-3 prostate, 25.8 µM; in the assay with MCF7 breast, 42.7 µM; with KM12 colon, 36.7 µM; in the assay on A498 renal, 40.5 µM; in the assay on SN12C renal, 27.7 µM. The TGI in the assay on IGROV1 ovarian was 38.9 µM; in the assay on OVCAR-5 ovarian, 35.4 µM; in the assay with MOLT-4 leukemia, more than 100 µM; in the assay on NCI-H23 lung, 22.1 µM; in the assay with RPMI-8226 leukemia, more than 100 µM; in the assay on SW-620 colon, 27.7 µM. Moreover, the TGI in the assay with NCI-H226 lung turned out to be 33.5 µM.
Consider `CC1=NN(c2cccc(Cl)c2)C2(SCC(=O)N2c2nc3ccccc3s2)/C1=C\c1ccc(Cl)cc1` (centres undefined), for which the TGI was 31.1 µM in the assay with PC-3 prostate; 87 µM in the assay with MCF7 breast; 34.8 µM in the assay on KM12 colon; 40.2 µM in the assay with A498 renal; 37.8 µM in the assay with IGROV1 ovarian; 55.4 µM in the assay on OVCAR-5 ovarian. Further, the TGI in the assay with MOLT-4 leukemia was found to be 20.8 µM; in the assay on NCI-H23 lung, 41.5 µM; in the assay on RPMI-8226 leukemia, 39.5 µM; with SW-620 colon, 27.9 µM; in the assay with NCI-H226 lung, 75.1 µM.
With `O=C1C=CC2(O[C@H](c3ccccc3)[C@@H](c3ccccc3)O2)C(SC(=O)c2ccccc2)C1` (some centres undefined), the TGI came to 1.65 µM with BT-549 breast; 4.58 µM with PC-3 prostate; 2.83 µM with MCF7 breast; 6.87 µM with KM12 colon; 20.6 µM with A498 renal; 6.42 µM with SN12C renal. Also, the TGI was 2.86 µM in the assay on IGROV1 ovarian; 3.27 µM in the assay with OVCAR-5 ovarian; more than 100 µM with MOLT-4 leukemia; 3.82 µM in the assay with NCI-H23 lung; 3.25 µM with RPMI-8226 leukemia; 0.811 µM in the assay on SW-620 colon. The TGI in the assay with NCI-H226 lung came out at 4.32 µM.
Consider `O=c1[nH]c(Nc2ccc(F)c(Cl)c2)nc2nc[nH]c12`, for which the TGI in the assay on BT-549 breast, in the assay with PC-3 prostate, with MCF7 breast, with KM12 colon, in the assay with A498 renal and with SN12C renal was more than 100 µM throughout. The TGI was more than 100 µM in the assay on IGROV1 ovarian; more than 100 µM in the assay with OVCAR-5 ovarian; 39.5 µM in the assay on MOLT-4 leukemia; more than 100 µM in the assay with NCI-H23 lung; more than 100 µM in the assay on RPMI-8226 leukemia; more than 100 µM in the assay on SW-620 colon. Also, the TGI with NCI-H226 lung is more than 100 µM.
Consider `CC1=C(C)C(=O)O[C@@H]([C@](C)(O)[C@]2(O)CC[C@@]3(O)[C@@H]4C[C@H]5O[C@]56[C@@H](O)C=CC(=O)[C@]6(C)[C@H]4CC[C@]23C)C1`, for which the GI50 is 0.164 µM in the assay with MCF7 breast; 0.95 µM and 0.637 µM in the assay with KM12 colon; 1.12 µM and 0.376 µM in the assay with A498 renal; 3.55 µM and 1.47 µM in the assay with OVCAR-5 ovarian; 0.0688 µM and 0.177 µM with MOLT-4 leukemia; 0.38 µM and 0.205 µM with NCI-H23 lung. Besides, the GI50 in the assay on SW-620 colon was 0.266 µM and 0.0856 µM. In addition, the TGI with MCF7 breast is 2.94 µM and 3.41 µM; in the assay with KM12 colon, 6.73 µM and 4.57 µM; in the assay on A498 renal, 11.1 µM and 2.08 µM; in the assay on SN12C renal, 6.59 µM; with IGROV1 ovarian it was 9.53 µM and 6.51 µM; in the assay with OVCAR-5 ovarian it was 8.44 µM and 5.88 µM. Also, the TGI is 4.63 µM and 1.29 µM in the assay on NCI-H23 lung; 0.787 µM and 0.574 µM in the assay on SW-620 colon; 22 µM with NCI-H226 lung.
For `Cc1ccc(CC(=O)Nc2ccc(NC(=O)/C=C/NC(=O)/C=C/c3ccc(-c4ccccc4)cc3)cc2C(=O)c2ccccc2)cc1`, the TGI was 3.11 µM in the assay with BT-549 breast; 3.48 µM in the assay on PC-3 prostate; 4.92 µM in the assay with MCF7 breast; 14.6 µM with KM12 colon; 5.31 µM in the assay with A498 renal; 5.51 µM with SN12C renal. The TGI with IGROV1 ovarian is 2.16 µM; with OVCAR-5 ovarian it was 5.77 µM; in the assay on MOLT-4 leukemia, 9.16 µM; in the assay with NCI-H23 lung it was 4.2 µM; in the assay with RPMI-8226 leukemia, 14.7 µM; in the assay with SW-620 colon it was 3.44 µM. This molecule also returned a TGI with NCI-H226 lung of 6.15 µM.

For the origin of these results see PubChem BioAssay (NCI).
